Data taken from patent US12077503B2, “Substituted cyclic amides and their use as herbicides” (FMC CORPORATION, priority 2015, dated 2024).

Tests used:
Format in all cases: in vivo
corn (Zea mays) [1] = assay: Test G Pre-Emergence Protocol; conditions: Zea mays, pre-emergence, 312 h, evaluated after 13 days; for plant injury at 15.625 g/ha: 15.625 g ai/ha; for plant injury at 15.625 g/ha / plant injury at 250 g/ha: read-out: Corn damage rating (100=total damage to plant; 0=no damage to plant); for plant injury at 62.5 g/ha: 62.5 g ai/ha, 100=total damage to plant, 0=no damage to plant, read-out: Corn damage rating; for plant injury at 250 g/ha: 250 g ai/ha
Summary of the method: (§1)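 Herbicidal effect was rated 13 days post-application on a scale where 100 equals total damage. Spraying took place the day after sowing, using 15.625, 62.5 or 250 g/ha of compound in a 50:50 acetone/water solution with 0.5% Tween 20.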

[2] = test system: redroot pigweed (Amaranthus retroflexus); assay: Test G Pre-Emergence Protocol; conditions: Amaranthus retroflexus, pre-emergence, 312 h, evaluated after 13 days; for pest or weed control at 15.625 g/ha: 15.625 g ai/ha; for pest or weed control at 15.625 g/ha / pest or weed control at 250 g/ha: read-out: Pigweed, Redroot damage rating (100=total damage to plant; 0=no damage to plant); for pest or weed control at 62.5 g/ha: 62.5 g ai/ha, 100=total damage to plant, 0=no damage to plant, read-out: Pigweed, Redroot damage rating; for pest or weed control at 250 g/ha: 250 g ai/ha
Summary of the method: as §1

[3] = test system: barnyardgrass (Echinochloa crus-galli); assay: Test G Pre-Emergence Protocol; conditions: Echinochloa crus-galli, pre-emergence, 312 h, evaluated after 13 days; for pest or weed control at 15.625 g/ha: 15.625 g ai/ha; for pest or weed control at 15.625 g/ha / pest or weed control at 250 g/ha: read-out: Barnyardgrass damage rating (100=total damage to plant; 0=no damage to plant); for pest or weed control at 62.5 g/ha: 62.5 g ai/ha, 100=total damage to plant, 0=no damage to plant, read-out: Barnyardgrass damage rating; for pest or weed control at 250 g/ha: 250 g ai/ha
Summary of the method: as §1

[4] = test system: giant foxtail (Setaria faberi); assay: Test G Pre-Emergence Protocol; conditions: Setaria faberi, pre-emergence, 312 h, evaluated after 13 days; for pest or weed control at 15.625 g/ha: 15.625 g ai/ha; for pest or weed control at 15.625 g/ha / pest or weed control at 250 g/ha: read-out: Foxtail, Giant damage rating (100=total damage to plant; 0=no damage to plant); for pest or weed control at 62.5 g/ha: 62.5 g ai/ha, 100=total damage to plant, 0=no damage to plant, read-out: Foxtail, Giant damage rating; for pest or weed control at 250 g/ha: 250 g ai/ha
Summary of the method: as §1

[5] = test system: ivy-leaved morning glory (Ipomoea hederacea); assay: Test G Pre-Emergence Protocol; conditions: Ipomoea, pre-emergence, 312 h, evaluated after 13 days; for pest or weed control at 15.625 g/ha: 15.625 g ai/ha; for pest or weed control at 15.625 g/ha / pest or weed control at 250 g/ha: read-out: Morningglory, Ivy-leaved damage rating (100=total damage to plant; 0=no damage to plant); for pest or weed control at 62.5 g/ha: 62.5 g ai/ha, 100=total damage to plant, 0=no damage to plant, read-out: Morningglory, Ivy-leaved damage rating; for pest or weed control at 250 g/ha: 250 g ai/ha
Summary of the method: as §1

[6] = test system: velvetleaf (Abutilon theophrasti); assay: Test G Pre-Emergence Protocol; conditions: Abutilon theophrasti, pre-emergence, 312 h, evaluated after 13 days; for pest or weed control at 15.625 g/ha: 15.625 g ai/ha; for pest or weed control at 15.625 g/ha / pest or weed control at 250 g/ha: read-out: Velvetleaf damage rating (100=total damage to plant; 0=no damage to plant); for pest or weed control at 62.5 g/ha: 62.5 g ai/ha, 100=total damage to plant, 0=no damage to plant, read-out: Velvetleaf damage rating; for pest or weed control at 250 g/ha: 250 g ai/ha
Summary of the method: as §1

corn (Zea mays) [7] = assay: Test G Post-Emergence Protocol; conditions: Zea mays, post-emergence, 312 h, read-out: Corn damage rating; for plant injury at 15.625 g/ha: 15.625 g ai/ha, evaluated after 13 days (100=total damage to plant; 0=no damage to plant); for plant injury at 62.5 g/ha: 62.5 g ai/ha; for plant injury at 62.5 g/ha / plant injury at 250 g/ha: evaluated after 13 days, 100=total damage to plant, 0=no damage to plant; for plant injury at 250 g/ha: 250 g ai/ha
Summary of the method: (§2)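 Post-emergence herbicidal damage, scored visually 0–100 at 13 days. Application at 15.625, 62.5 or 250 g/ha onto 8-day-old plants grown under glasshouse control.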

[8] = test system: redroot pigweed (Amaranthus retroflexus); assay: Test G Post-Emergence Protocol; conditions: Amaranthus retroflexus, post-emergence, 312 h, read-out: Pigweed, Redroot damage rating; for pest or weed control at 15.625 g/ha: 15.625 g ai/ha, evaluated after 13 days (100=total damage to plant; 0=no damage to plant); for pest or weed control at 62.5 g/ha: 62.5 g ai/ha; for pest or weed control at 62.5 g/ha / pest or weed control at 250 g/ha: evaluated after 13 days, 100=total damage to plant, 0=no damage to plant; for pest or weed control at 250 g/ha: 250 g ai/ha
Summary of the method: as §2

[9] = test system: barnyardgrass (Echinochloa crus-galli); assay: Test G Post-Emergence Protocol; conditions: Echinochloa crus-galli, post-emergence, 312 h, read-out: Barnyardgrass damage rating; for pest or weed control at 15.625 g/ha: 15.625 g ai/ha, evaluated after 13 days (100=total damage to plant; 0=no damage to plant); for pest or weed control at 62.5 g/ha: 62.5 g ai/ha; for pest or weed control at 62.5 g/ha / pest or weed control at 250 g/ha: evaluated after 13 days, 100=total damage to plant, 0=no damage to plant; for pest or weed control at 250 g/ha: 250 g ai/ha
Summary of the method: as §2

[10] = test system: giant foxtail (Setaria faberi); assay: Test G Post-Emergence Protocol; conditions: Setaria faberi, post-emergence, 312 h, read-out: Foxtail, Giant damage rating; for pest or weed control at 15.625 g/ha: 15.625 g ai/ha, evaluated after 13 days (100=total damage to plant; 0=no damage to plant); for pest or weed control at 62.5 g/ha: 62.5 g ai/ha; for pest or weed control at 62.5 g/ha / pest or weed control at 250 g/ha: evaluated after 13 days, 100=total damage to plant, 0=no damage to plant; for pest or weed control at 250 g/ha: 250 g ai/ha
Summary of the method: as §2

[11] = test system: ivy-leaved morning glory (Ipomoea hederacea); assay: Test G Post-Emergence Protocol; conditions: Ipomoea, post-emergence, 312 h, read-out: Morningglory, Ivy-leaved damage rating; for pest or weed control at 15.625 g/ha: 15.625 g ai/ha, evaluated after 13 days (100=total damage to plant; 0=no damage to plant); for pest or weed control at 62.5 g/ha: 62.5 g ai/ha; for pest or weed control at 62.5 g/ha / pest or weed control at 250 g/ha: evaluated after 13 days, 100=total damage to plant, 0=no damage to plant; for pest or weed control at 250 g/ha: 250 g ai/ha
Summary of the method: as §2

[12] = test system: velvetleaf (Abutilon theophrasti); assay: Test G Post-Emergence Protocol; conditions: Abutilon theophrasti, post-emergence, 312 h, read-out: Velvetleaf damage rating; for pest or weed control at 15.625 g/ha: 15.625 g ai/ha, evaluated after 13 days (100=total damage to plant; 0=no damage to plant); for pest or weed control at 62.5 g/ha: 62.5 g ai/ha; for pest or weed control at 62.5 g/ha / pest or weed control at 250 g/ha: evaluated after 13 days, 100=total damage to plant, 0=no damage to plant; for pest or weed control at 250 g/ha: 250 g ai/ha
Summary of the method: as §2

Row | SMILES | plant injury at 15.625 g/ha (corn (Zea mays) [1]) | plant injury at 62.5 g/ha (corn (Zea mays) [1]) | plant injury at 250 g/ha (corn (Zea mays) [1]) | pest or weed control at 15.625 g/ha [2] | pest or weed control at 62.5 g/ha [2] | pest or weed control at 250 g/ha [2] | pest or weed control at 15.625 g/ha [3] | pest or weed control at 62.5 g/ha [3] | pest or weed control at 250 g/ha [3] | pest or weed control at 15.625 g/ha [4] | pest or weed control at 62.5 g/ha [4] | pest or weed control at 250 g/ha [4] | pest or weed control at 15.625 g/ha [5] | pest or weed control at 62.5 g/ha [5] | pest or weed control at 250 g/ha [5] | pest or weed control at 15.625 g/ha [6] | pest or weed control at 62.5 g/ha [6] | pest or weed control at 250 g/ha [6] | plant injury at 15.625 g/ha (corn (Zea mays) [7]) | plant injury at 62.5 g/ha (corn (Zea mays) [7]) | further results
1 | CN1C[C@H](c2cccc(Cl)c2)[C@@H](C(=O)Nc2cnccc2C(F)(F)F)C1=O (racemic) [Compound 1772] | 0% | 0% | 60% | 0% | 0% | 10% | 0% | 10% | 80% | 30% | 80% | 90% | 0% | 0% | 60% | 0% | 0% | 40% | 0% | 0% | plant injury at 250 g/ha (corn (Zea mays) [7]): 60%; pest or weed control at 15.625 g/ha [8]: 0%; pest or weed control at 62.5 g/ha [8]: 0%; pest or weed control at 250 g/ha [8]: 10%; pest or weed control at 15.625 g/ha [9]: 0%; pest or weed control at 62.5 g/ha [9]: 0%; pest or weed control at 250 g/ha [9]: 30%; pest or weed control at 15.625 g/ha [10]: 10%; pest or weed control at 62.5 g/ha [10]: 60%; pest or weed control at 250 g/ha [10]: 80%; pest or weed control at 15.625 g/ha [11]: 0%; pest or weed control at 62.5 g/ha [11]: 30%; pest or weed control at 250 g/ha [11]: 50%; pest or weed control at 15.625 g/ha [12]: 0%; pest or weed control at 62.5 g/ha [12]: 0%; pest or weed control at 250 g/ha [12]: 30%
2 | CN1C[C@H](c2cccc(C(C)(C)C#N)c2)[C@@H](C(=O)Nc2ccccc2S(C)(=O)=O)C1=O (racemic) [Compound 1784] | 0% | 0% | 0% | 0% | 0% | 0% | 0% | 10% | 10% | 10% | 0% | 40% | 0% | 0% | 10% | 0% | 0% | 0% | 0% | 0% | plant injury at 250 g/ha (corn (Zea mays) [7]): 0%; pest or weed control at 15.625 g/ha [8]: 0%; pest or weed control at 62.5 g/ha [8]: 0%; pest or weed control at 250 g/ha [8]: 0%; pest or weed control at 15.625 g/ha [9]: 0%; pest or weed control at 62.5 g/ha [9]: 0%; pest or weed control at 250 g/ha [9]: 0%; pest or weed control at 15.625 g/ha [10]: 0%; pest or weed control at 62.5 g/ha [10]: 0%; pest or weed control at 250 g/ha [10]: 0%; pest or weed control at 15.625 g/ha [11]: 0%; pest or weed control at 62.5 g/ha [11]: 0%; pest or weed control at 250 g/ha [11]: 0%; pest or weed control at 15.625 g/ha [12]: 0%; pest or weed control at 62.5 g/ha [12]: 0%; pest or weed control at 250 g/ha [12]: 0%
3 | CN1C[C@H](c2cccc(C(F)(F)F)c2)[C@@H](C(=O)Nc2ccc(O)cc2F)C1=O (racemic) [Compound 1785] | 0% | 0% | 0% | 0% | 0% | 20% | 0% | 0% | 0% | 0% | 0% | 10% | 0% | 0% | 0% | 0% | 0% | 0% | 0% | 0% | plant injury at 250 g/ha (corn (Zea mays) [7]): 0%; pest or weed control at 15.625 g/ha [8]: 0%; pest or weed control at 62.5 g/ha [8]: 0%; pest or weed control at 250 g/ha [8]: 0%; pest or weed control at 15.625 g/ha [9]: 0%; pest or weed control at 62.5 g/ha [9]: 0%; pest or weed control at 250 g/ha [9]: 0%; pest or weed control at 15.625 g/ha [10]: 0%; pest or weed control at 62.5 g/ha [10]: 0%; pest or weed control at 15.625 g/ha [11]: 0%; pest or weed control at 62.5 g/ha [11]: 0%; pest or weed control at 250 g/ha [11]: 0%; pest or weed control at 15.625 g/ha [12]: 0%; pest or weed control at 62.5 g/ha [12]: 0%; pest or weed control at 250 g/ha [12]: 0%
